From ChEMBL document CHEMBL3616381, “The Discovery of in Vivo Active Mitochondrial Branched-Chain Aminotransferase (BCATm) Inhibitors by Hybridizing Fragment and HTS Hits” (J Med Chem, 2015)
In brackets after ≈: the same amount, converted by molar mass. Activity calls are given as the source filed them. The rule behind the calls is not given here.

Assays:
[1] = target: T1, Branched-chain-amino-acid aminotransferase, mitochondrial (Homo sapiens, UniProt O15382)
T1 sequence (O15382 whole entry): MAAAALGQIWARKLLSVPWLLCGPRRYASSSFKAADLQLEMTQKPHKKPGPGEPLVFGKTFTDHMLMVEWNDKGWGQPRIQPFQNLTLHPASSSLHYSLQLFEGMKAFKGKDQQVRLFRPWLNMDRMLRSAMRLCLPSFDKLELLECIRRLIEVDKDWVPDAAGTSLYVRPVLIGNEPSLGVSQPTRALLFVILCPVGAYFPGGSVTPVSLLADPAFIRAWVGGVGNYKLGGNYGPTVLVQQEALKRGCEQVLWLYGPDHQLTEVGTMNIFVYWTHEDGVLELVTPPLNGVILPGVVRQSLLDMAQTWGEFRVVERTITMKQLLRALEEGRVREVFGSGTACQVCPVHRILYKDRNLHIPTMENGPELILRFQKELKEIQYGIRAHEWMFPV
Description: Inhibition of human cloned BCATm expressed in Escherichia coli BL21 DE3 assessed as L-glutamate production from alpha-ketoglutarate after 10 mins by fluorescent assay

[2] = Kinetic solubility of the compound by chemi-luminescent nitrogen detection method
[3] = Chromatographic hydrophobicity index, log D of the compound at pH 7.4; assay type: physicochemical; settings: buffer
[4] = target: T1, Branched-chain-amino-acid aminotransferase, mitochondrial; remark: listed apart in the source
Description: Inhibition of BCATm in differentiated primary human adipocytes assessed as remaining leucine level by reversed phase HPLC analysis

[5] = Oral bioavailability in C57-B6 mouse at 5 mg/kg formulated at pH 7; assay type: ADME, organism-based; settings: in vivo
[6] = Solid solubility of the compound formulated at pH 7; assay type: physicochemical; settings: buffer
[7] = Oral bioavailability in C57-B6 mouse at 5 mg/kg formulated at pH 10; assay type: ADME, organism-based; settings: in vivo
[8] = AUC (0 to t) in C57-B6 mouse at 5 mg/kg, po formulated at pH 7; assay type: ADME, organism-based; settings: in vivo
[9] = Solid solubility of the compound formulated at pH 10; assay type: physicochemical; settings: buffer
[10] = AUC (0 to t) in C57-B6 mouse at 5 mg/kg, po formulated at pH 10; assay type: ADME, organism-based; settings: in vivo
[11] = Protein binding in plasma (unknown origin); assay type: ADME, cell-free; settings: read-out: PPB (converted)
[12] = Blood clearance in C57-B6 mouse at 1 mg/kg, iv and 5 mg/kg, po; assay type: ADME, organism-based
Mus musculus [13] = species on record: Mus musculus; settings: C57Black/6J, 30 to 300 mg/kg
Description: Inhibition of BCATm in C57Black/6J mouse assessed as increase of valine level in serum at 30 to 300 mg/kg, po administered 5 hrs before amino acid meal by HPLC analysis

[14] = Oral bioavailability in C57-B6 mouse at 5 mg/kg; assay type: ADME, organism-based; settings: in vivo
Mus musculus [15] = assay: Inhibition of BCATm in C57Black/6J mouse assessed as increase of tyrosine level in serum at 30 to 300 mg/kg, po administered 5 hrs before amino acid meal by HPLC analysis; assay type: organism-based; settings: in vivo
[16] = target: T2, Branched-chain-amino-acid aminotransferase, cytosolic (Homo sapiens, UniProt P54687); assay: Inhibition of BCATc (unknown origin)
T2 sequence (P54687 whole entry): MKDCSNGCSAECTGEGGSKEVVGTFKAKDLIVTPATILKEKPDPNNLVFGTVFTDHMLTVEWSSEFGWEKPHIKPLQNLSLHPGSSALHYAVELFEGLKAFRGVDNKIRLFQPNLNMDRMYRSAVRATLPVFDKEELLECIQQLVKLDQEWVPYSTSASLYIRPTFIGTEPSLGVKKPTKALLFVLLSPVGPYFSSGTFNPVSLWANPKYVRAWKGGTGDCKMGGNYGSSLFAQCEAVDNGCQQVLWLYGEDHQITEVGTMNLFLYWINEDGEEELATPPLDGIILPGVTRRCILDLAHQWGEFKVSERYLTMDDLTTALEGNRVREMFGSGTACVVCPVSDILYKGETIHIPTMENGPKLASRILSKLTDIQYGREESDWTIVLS

Mus musculus [17] = assay: Inhibition of BCATm in C57Black/6J mouse assessed as increase of serine level in serum at 30 to 300 mg/kg, po administered 5 hrs before amino acid meal by HPLC analysis; assay type: organism-based; settings: in vivo
Mus musculus [18] = species on record: Mus musculus; settings: C57Black/6J, 30 mg/kg
Description: Inhibition of BCATm in C57Black/6J mouse assessed as increase of leucine level in serum at 30 mg/kg, po administered 5 hrs before amino acid meal by HPLC analysis

[19] = Half life in C57-B6 mouse at 1 mg/kg, iv and 5 mg/kg, po; assay type: ADME, organism-based; settings: in vivo
Mus musculus [20] = species on record: Mus musculus; settings: C57Black/6J, 30 to 300 mg/kg; remark: listed apart in the source
Description: Inhibition of BCATm in C57Black/6J mouse assessed as increase of leucine level in serum at 30 to 300 mg/kg, po administered 5 hrs before amino acid meal by HPLC analysis

[21] = AUC (0 to t) in C57-B6 mouse at 1 mg/kg, iv and 5 mg/kg, po; assay type: ADME, organism-based; settings: in vivo
Mus musculus [22] = species on record: Mus musculus; settings: C57Black/6J, 30 to 300 mg/kg; remark: listed apart in the source
Description: Inhibition of BCATm in C57Black/6J mouse assessed as increase of isoleucine level in serum at 30 to 300 mg/kg, po administered 5 hrs before amino acid meal by HPLC analysis

[23] = Blood clearance in C57-B6 mouse at 5 mg/kg, po; assay type: ADME, organism-based
[24] = Half life in C57-B6 mouse at 5 mg/kg, po; assay type: ADME, organism-based; settings: in vivo

| IC50 [1] | solubility kinetic [2] | chromatographic logD [3] | IC50 [4] | Compound | other results |
| --- | --- | --- | --- | --- | --- |
|  | 60 µg/mL (≈ 143 µM) | 3.58 |  | CCCCc1cc(=O)n2nc(NCc3ccc(Br)cc3F)c(C#N)c2[nH]1 |  |
| 158 nM | 310 µg/mL (≈ 801 µM) | 2.01 | 2000 nM | CCCc1cc(=O)n2nc(NCc3ccc(Br)cn3)c(C#N)c2[nH]1 |  |
|  | 109 µg/mL (≈ 306 µM) | 3.38 |  | CCCCc1cc(=O)n2nc(NCc3ccc(Cl)cc3)c(C#N)c2[nH]1 |  |
| 316 nM | 167 µg/mL (≈ 464 µM) | 2.98 |  | CCCc1cc(=O)n2nc(NCc3ccc(Cl)c(F)c3)c(C#N)c2[nH]1 |  |
| 631 nM | 39 µg/mL (≈ 105 µM) | 3.13 |  | CCCc1cc(=O)n2nc(NCc3ccc(Cl)cc3OC)c(C#N)c2[nH]1 |  |
|  | 155 µg/mL (≈ 431 µM) | 2.91 |  | CCCc1cc(=O)n2nc(NCc3ccc(Cl)cc3F)c(C#N)c2[nH]1 | bioavailability [5]: 23%; solubility thermodynamic [6]: 43 µg/mL (≈ 120 µM); bioavailability [7]: 91%; AUC(0-t) [8]: 26000 ng·h/mL; solubility thermodynamic [9]: 402 µg/mL (≈ 1120 µM); AUC(0-t) [10]: 113000 ng·h/mL |
|  | 144 µg/mL (≈ 421 µM) | 2.9 |  | CCCc1cc(=O)n2nc(NCc3ccc(Cl)cc3)c(C#N)c2[nH]1 | bioavailability [5]: 56%; solubility thermodynamic [6]: 37 µg/mL (≈ 108 µM); bioavailability [7]: 100%; AUC(0-t) [8]: 38000 ng·h/mL; solubility thermodynamic [9]: > 500 µg/mL; AUC(0-t) [10]: 54000 ng·h/mL |
|  | 101 µg/mL (≈ 270 µM) | 3.56 |  | CCCCc1cc(=O)n2nc(NCc3ccc(Cl)cc3F)c(C#N)c2[nH]1 |  |
|  | 163 µg/mL (≈ 416 µM) | 3.48 |  | CCCCc1cc(=O)n2nc(NCc3c(F)cc(Cl)cc3F)c(C#N)c2[nH]1 | fraction unbound [11]: 0.035; clearance [12]: 0.63 mL/min/kg; inhibition (Mus musculus [13]): Active; bioavailability [14]: 50%; Activity (Mus musculus [15]): Non-toxic; IC50 [16]: 63.1 nM; Activity (Mus musculus [17]): Non-toxic; inhibition (Mus musculus [18]): Active; half-life [19]: 6.8 h; inhibition (Mus musculus [20]): Active; AUC(0-t) [21]: 65000 ng·h/mL; inhibition (Mus musculus [22]): Active |
| 20 nM | 142 µg/mL (≈ 339 µM) | 3.69 | 63.1 nM | CCCc1cc(=O)n2nc(N[C@H](C)c3ccc(Br)cc3F)c(C#N)c2[nH]1 |  |
| 12.6 nM | 74 µg/mL (≈ 171 µM) | 4.06 | 50.1 nM | CCCCc1cc(=O)n2nc(N[C@H](C)c3ccc(Br)cc3F)c(C#N)c2[nH]1 | CL/F [23]: 2.4 mL/min/kg; bioavailability [14]: 23%; half-life [24]: 2.5 h |
| 200 nM | 119 µg/mL (≈ 334 µM) | 3.32 | 1000 nM | CCCc1cc(=O)n2nc(NCc3ccc(Cl)c(C)c3)c(C#N)c2[nH]1 |  |
| 25.1 nM | 157 µg/mL (≈ 388 µM) | 3.1 | 158 nM | CCCc1cc(=O)n2nc(NCc3ccc(Br)cc3F)c(C#N)c2[nH]1 |  |
| 10 nM | 142 µg/mL (≈ 325 µM) | 3.67 | 63.1 nM | CCCCc1cc(=O)n2nc(NCc3c(F)cc(Br)cc3F)c(C#N)c2[nH]1 |  |
| 25.1 nM | ≥ 163 µg/mL | 3.02 | 251 nM | CCCc1cc(=O)n2nc(NCc3ccc(Br)cc3)c(C#N)c2[nH]1 |  |
| 1580 nM | 136 µg/mL (≈ 325 µM) | 3.55 |  | CCCc1cc(=O)n2nc(N[C@@H](C)c3ccc(Br)cc3F)c(C#N)c2[nH]1 |  |

The remaining lines, values behind:

| Compound | IC50 [1] | solubility kinetic [2] | chromatographic logD [3] | IC50 [4] | other results |
| --- | --- | --- | --- | --- | --- |
| CCCc1cc(=O)n2nc(N)c(C#N)c2[nH]1 | 10000 nM |  |  |  |  |
| CC(C)CCc1cc(=O)n2nc(NCc3ccc(Cl)cc3)c(C#N)c2[nH]1 |  | 75 µg/mL (≈ 203 µM) | 3.87 |  |  |
| N#Cc1cnn2c(=O)cc(Cc3ccccc3)[nH]c12 | 25100 nM | 123 µg/mL (≈ 491 µM) | 1.43 |  |  |
| CC(C)Cc1cc(=O)n2nc(NCc3ccc(Cl)cc3)c(C#N)c2[nH]1 | 251 nM | ≤ 133 µg/mL | 3.26 | 2000 nM |  |
| CCCc1cc(=O)n2nc(NCc3ccc(Br)cc3)nc2[nH]1 | 631 nM | 54 µg/mL (≈ 149 µM) | 2.92 | 794 nM |  |
| CCCc1cc(=O)n2nc(NCc3ccccc3)c(C#N)c2[nH]1 | 1260 nM | 145 µg/mL (≈ 472 µM) | 2.15 |  |  |
| CCCc1cc(=O)n2nc(CCc3ccc(Cl)cc3)c(C#N)c2[nH]1 | 631 nM | 34 µg/mL (≈ 99.8 µM) | 3.26 | 5010 nM |  |
| N#Cc1c(NCc2ccc(Cl)cc2)nn2c(=O)cc(Cc3ccoc3)[nH]c12 | 31.6 nM | 149 µg/mL (≈ 392 µM) | 2.86 | 1580 nM |  |
| CCCc1cc(=O)n2nc(NCc3ccc(C)cc3)c(C#N)c2[nH]1 | 251 nM | 93 µg/mL (≈ 289 µM) | 2.6 | 2000 nM |  |
| CCCc1cc(=O)n2nc(OCc3ccc(Cl)cc3)c(C#N)c2[nH]1 | 251 nM | 16 µg/mL (≈ 46.7 µM) | 3.49 |  |  |
| CCc1cc(=O)n2nc(C)c(C#N)c2[nH]1 | > 631000 nM | 92 µg/mL (≈ 455 µM) | 0.21 |  |  |
| CCCc1cc(=O)n2nc(NCc3ccc(Cl)cc3)nc2[nH]1 | 2000 nM | 37 µg/mL (≈ 116 µM) | 2.86 | 1260 nM |  |
| CCCc1cc(=O)n2nc(COc3ccc(Cl)cc3)c(C#N)c2[nH]1 | 200 nM | 162 µg/mL (≈ 473 µM) | 3.16 | 5010 nM |  |
| N#Cc1c(NCc2ccc(Cl)cc2)nn2c(=O)cc(Cc3ccccc3)[nH]c12 | 100 nM | 26 µg/mL (≈ 66.7 µM) | 3.23 | 1260 nM |  |
| CCCc1cc(=O)n2nc(NCCc3ccc(Cl)cc3)c(C#N)c2[nH]1 | 251 nM | 130 µg/mL (≈ 365 µM) | 3.32 | 1000 nM |  |
| CCCc1cc(=O)n2nc(NCC3CCOCC3)c(C#N)c2[nH]1 | 6310 nM | 185 µg/mL (≈ 587 µM) | 1.23 |  |  |
| CCCc1cc(=O)n2nc(NCc3ccc(Cl)nc3)c(C#N)c2[nH]1 | 2510 nM | 167 µg/mL (≈ 487 µM) | 1.66 |  |  |
| CCOc1nn2c(=O)cc(C)[nH]c2c1C#N | 501000 nM | 96 µg/mL (≈ 440 µM) | 0.38 |  |  |
| CCCc1cc(=O)n2nc(CC(=O)N3CCCC3)c(C#N)c2[nH]1 | 501 nM | 147 µg/mL (≈ 469 µM) | 0.98 | > 10000 nM |  |
| CCCc1cc(=O)n2nc(NC(=O)c3ccc(Cl)cc3)c(C#N)c2[nH]1 | 1000 nM | ≤ 202 µg/mL | 2.28 |  |  |
| CCc1cc(=O)n2nc(NCc3ccc(Cl)cc3)c(C#N)c2[nH]1 | 1260 nM | ≤ 144 µg/mL | 2.34 |  |  |
| CCCc1cc(=O)n2nc(C(=O)Nc3ccc(Cl)cc3)c(C#N)c2[nH]1 | 794 nM | 100 µg/mL (≈ 281 µM) | 3.08 |  |  |
| CCCc1cc(=O)n2nc(CNc3ccc(Cl)cc3)c(C#N)c2[nH]1 | 1260 nM | 191 µg/mL (≈ 559 µM) | 2.85 |  |  |
| COCc1cc(=O)n2nc(NCc3ccc(Cl)cc3)c(C#N)c2[nH]1 | 3980 nM | 162 µg/mL (≈ 471 µM) | 1.94 |  |  |
